Our source for the AC50 values is ChEMBL document CHEMBL5291721, “A preclinical secondary pharmacology resource illuminates target-adverse drug reaction associations of marketed drugs” (Nat Commun, 2023).

Assay [1] deals with Motilin receptor (Homo sapiens, UniProt O43193).
Assay [2] addresses T1, Amine oxidase [flavin-containing] A (Homo sapiens, UniProt P21397).
T1 sequence (P21397 whole entry): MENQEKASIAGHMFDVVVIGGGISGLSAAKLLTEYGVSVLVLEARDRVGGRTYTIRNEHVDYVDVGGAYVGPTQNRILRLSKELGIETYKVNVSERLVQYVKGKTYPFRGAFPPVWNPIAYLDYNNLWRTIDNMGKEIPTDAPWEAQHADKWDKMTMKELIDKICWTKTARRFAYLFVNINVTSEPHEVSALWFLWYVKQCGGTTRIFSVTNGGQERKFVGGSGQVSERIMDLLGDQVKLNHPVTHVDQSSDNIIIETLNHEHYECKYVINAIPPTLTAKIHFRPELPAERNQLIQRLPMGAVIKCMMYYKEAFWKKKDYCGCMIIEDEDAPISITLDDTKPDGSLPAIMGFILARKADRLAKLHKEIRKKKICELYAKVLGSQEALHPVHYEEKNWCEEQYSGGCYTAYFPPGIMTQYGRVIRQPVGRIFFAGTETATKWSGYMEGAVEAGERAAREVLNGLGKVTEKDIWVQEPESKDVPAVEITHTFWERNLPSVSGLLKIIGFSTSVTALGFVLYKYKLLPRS
Type of assay: functional.

In assay [3] the target is T2, Alpha-2A adrenergic receptor (Homo sapiens, UniProt P08913).
T2 sequence (P08913 whole entry): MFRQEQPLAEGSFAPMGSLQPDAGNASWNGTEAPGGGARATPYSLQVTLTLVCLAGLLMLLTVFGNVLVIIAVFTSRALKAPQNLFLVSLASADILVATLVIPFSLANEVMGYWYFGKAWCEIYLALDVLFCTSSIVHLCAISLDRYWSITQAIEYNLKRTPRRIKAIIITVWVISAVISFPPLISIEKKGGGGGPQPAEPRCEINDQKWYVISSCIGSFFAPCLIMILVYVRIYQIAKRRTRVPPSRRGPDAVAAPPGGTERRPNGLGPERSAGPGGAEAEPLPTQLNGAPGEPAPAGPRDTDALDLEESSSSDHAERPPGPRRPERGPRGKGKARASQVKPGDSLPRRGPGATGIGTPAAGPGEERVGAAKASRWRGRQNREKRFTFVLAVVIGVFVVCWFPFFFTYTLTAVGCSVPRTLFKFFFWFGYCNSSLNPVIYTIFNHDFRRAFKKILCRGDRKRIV
Type of assay: functional, cell-based.

Assay [4] has as its target D(3) dopamine receptor (Homo sapiens, UniProt P35462).
Assay [5] has as its target Beta-1 adrenergic receptor (Homo sapiens, UniProt P08588). Format: functional.
Assay [6] addresses T3, 5-hydroxytryptamine receptor 3A (Homo sapiens, UniProt P46098).
T3 sequence (P46098 whole entry): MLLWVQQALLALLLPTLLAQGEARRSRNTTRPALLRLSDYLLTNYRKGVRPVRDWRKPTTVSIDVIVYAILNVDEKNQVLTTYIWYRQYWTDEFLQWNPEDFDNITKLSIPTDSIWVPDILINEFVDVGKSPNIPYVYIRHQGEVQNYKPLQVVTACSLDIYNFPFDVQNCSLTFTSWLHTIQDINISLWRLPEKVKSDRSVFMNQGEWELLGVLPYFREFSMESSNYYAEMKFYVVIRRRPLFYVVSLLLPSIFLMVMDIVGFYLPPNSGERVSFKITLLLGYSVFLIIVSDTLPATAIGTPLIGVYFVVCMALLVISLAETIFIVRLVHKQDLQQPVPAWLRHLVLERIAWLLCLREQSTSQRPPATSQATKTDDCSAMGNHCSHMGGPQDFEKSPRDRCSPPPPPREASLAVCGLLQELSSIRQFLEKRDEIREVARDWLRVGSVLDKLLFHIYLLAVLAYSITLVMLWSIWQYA
Type of assay: functional.

Assay [7] addresses T4, Endothelin-1 receptor (Homo sapiens, UniProt P25101).
T4 sequence (P25101 whole entry): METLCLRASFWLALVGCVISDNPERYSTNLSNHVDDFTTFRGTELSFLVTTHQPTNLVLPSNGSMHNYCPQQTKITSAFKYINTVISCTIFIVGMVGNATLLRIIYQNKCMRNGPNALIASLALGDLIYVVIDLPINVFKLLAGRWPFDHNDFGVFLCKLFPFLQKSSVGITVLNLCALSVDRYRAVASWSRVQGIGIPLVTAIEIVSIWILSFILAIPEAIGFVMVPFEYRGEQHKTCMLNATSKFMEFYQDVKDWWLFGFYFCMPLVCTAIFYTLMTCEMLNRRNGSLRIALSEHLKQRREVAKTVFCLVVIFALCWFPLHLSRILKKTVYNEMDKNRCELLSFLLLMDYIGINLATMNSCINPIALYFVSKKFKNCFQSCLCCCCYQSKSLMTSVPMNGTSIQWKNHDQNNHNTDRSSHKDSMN

Assay [8] addresses T5, Equilibrative nucleoside transporter 1 (Homo sapiens, UniProt Q99808).
T5 sequence (Q99808 whole entry): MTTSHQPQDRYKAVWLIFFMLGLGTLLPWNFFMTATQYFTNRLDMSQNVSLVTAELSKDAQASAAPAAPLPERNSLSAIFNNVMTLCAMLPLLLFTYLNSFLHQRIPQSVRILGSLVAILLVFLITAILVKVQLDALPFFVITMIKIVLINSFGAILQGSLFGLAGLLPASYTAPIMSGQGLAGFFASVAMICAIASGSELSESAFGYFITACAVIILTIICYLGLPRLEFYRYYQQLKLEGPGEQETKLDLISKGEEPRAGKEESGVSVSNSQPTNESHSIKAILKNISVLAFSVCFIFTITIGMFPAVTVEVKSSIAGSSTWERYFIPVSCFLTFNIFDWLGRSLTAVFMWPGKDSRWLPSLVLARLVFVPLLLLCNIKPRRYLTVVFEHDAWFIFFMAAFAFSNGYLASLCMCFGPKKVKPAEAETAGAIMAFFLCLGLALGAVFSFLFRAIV

In assay [9] the target is Gamma-aminobutyric acid receptor subunit alpha-1 (Rattus norvegicus, UniProt P62813).
Gamma-aminobutyric acid receptor subunit alpha-1, sequence (P62813 whole entry): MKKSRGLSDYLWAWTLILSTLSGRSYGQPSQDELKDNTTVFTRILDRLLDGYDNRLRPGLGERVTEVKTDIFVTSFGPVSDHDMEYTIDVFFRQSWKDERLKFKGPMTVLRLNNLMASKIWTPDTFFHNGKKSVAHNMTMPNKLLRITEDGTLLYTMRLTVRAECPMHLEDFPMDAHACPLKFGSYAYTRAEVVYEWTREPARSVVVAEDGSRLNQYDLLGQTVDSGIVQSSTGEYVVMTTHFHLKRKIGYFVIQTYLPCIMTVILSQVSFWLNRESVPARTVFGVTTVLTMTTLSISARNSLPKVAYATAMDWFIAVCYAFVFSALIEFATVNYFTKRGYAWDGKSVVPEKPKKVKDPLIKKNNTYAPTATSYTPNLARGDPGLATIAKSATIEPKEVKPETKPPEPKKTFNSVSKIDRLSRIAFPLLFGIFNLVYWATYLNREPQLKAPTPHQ

Molecules are shown by their SMILES.
Also: assay procedure not described here.

Beta-1 adrenergic receptor, sequence (P08588 whole entry): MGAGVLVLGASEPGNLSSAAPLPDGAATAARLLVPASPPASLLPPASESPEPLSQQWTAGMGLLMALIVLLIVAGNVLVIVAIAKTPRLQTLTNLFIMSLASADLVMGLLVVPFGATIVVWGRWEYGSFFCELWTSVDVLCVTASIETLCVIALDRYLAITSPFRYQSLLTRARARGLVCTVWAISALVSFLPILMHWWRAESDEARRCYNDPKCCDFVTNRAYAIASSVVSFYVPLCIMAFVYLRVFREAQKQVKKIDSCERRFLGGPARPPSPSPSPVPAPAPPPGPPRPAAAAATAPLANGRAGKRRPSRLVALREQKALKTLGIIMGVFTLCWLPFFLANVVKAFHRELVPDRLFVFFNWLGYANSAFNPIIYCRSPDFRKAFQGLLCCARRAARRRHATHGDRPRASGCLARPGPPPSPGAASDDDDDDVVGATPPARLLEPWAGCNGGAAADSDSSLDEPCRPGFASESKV
D(3) dopamine receptor, sequence (P35462 whole entry): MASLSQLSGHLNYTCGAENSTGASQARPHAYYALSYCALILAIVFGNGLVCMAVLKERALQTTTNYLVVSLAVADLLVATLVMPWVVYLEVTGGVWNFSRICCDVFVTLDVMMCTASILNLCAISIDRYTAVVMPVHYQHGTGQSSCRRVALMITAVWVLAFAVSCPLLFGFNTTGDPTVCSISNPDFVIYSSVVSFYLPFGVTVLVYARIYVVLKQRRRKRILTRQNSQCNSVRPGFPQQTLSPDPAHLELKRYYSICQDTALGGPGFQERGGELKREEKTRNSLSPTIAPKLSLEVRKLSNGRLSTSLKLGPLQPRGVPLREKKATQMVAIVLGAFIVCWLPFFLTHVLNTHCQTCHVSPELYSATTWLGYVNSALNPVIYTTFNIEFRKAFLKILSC
Motilin receptor, sequence (O43193 whole entry): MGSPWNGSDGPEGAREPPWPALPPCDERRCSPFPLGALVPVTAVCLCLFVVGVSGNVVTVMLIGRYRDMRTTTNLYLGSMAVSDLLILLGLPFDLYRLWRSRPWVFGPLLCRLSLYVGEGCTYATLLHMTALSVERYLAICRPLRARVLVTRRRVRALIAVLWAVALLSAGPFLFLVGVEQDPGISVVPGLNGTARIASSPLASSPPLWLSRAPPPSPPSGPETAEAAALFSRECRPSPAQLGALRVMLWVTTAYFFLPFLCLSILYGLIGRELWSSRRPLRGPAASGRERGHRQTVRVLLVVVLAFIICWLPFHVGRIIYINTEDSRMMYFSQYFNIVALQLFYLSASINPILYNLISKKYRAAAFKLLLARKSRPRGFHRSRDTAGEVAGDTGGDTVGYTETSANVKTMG

The term AC50 denotes the midpoint of the concentration-response curve, whichever way the signal moves. On to `Cc1ccc(-c2nc3ccc(C)cn3c2CC(=O)N(C)C)cc1` [ZOLPIDEM], for which the AC50 in assay [1], in assay [2], in assay [3], in [4], in assay [5] and in assay [6] was above 30 µM throughout. For the same molecule, the half-maximal activity concentration (AC50) in assay [7] and in assay [8] was above 30 µM throughout.

Regarding `CCCC(CCC)C(=O)O[C@H]1C[C@H]2CC[C@@H](C1)[N+]2(C)C` [ANISOTROPINE], the AC50 in [1] is above 30 µM; in assay [2], above 30 µM; in assay [3] it was above 30 µM; in assay [4] it was above 30 µM; in assay [5], above 30 µM; in assay [6], 28 µM. This molecule registered an AC50 in assay [7] above 30 µM.

In the case of `O=C1CN=C(c2ccccc2)c2cc(Cl)ccc2N1CC(F)(F)F` [HALAZEPAM], the AC50 in assay [1], in assay [2], in assay [3], in [4], in assay [5] and in [6] was above 30 µM each time. For the same molecule, the AC50 in assay [7] and in [8] was above 30 µM in each case.

`CCCCCOC(=O)Nc1nc(=O)n([C@@H]2O[C@H](C)[C@@H](O)[C@H]2O)cc1F` [CAPECITABINE]: the AC50 in assay [1], in assay [2], in assay [3], in assay [4], in assay [5] and in assay [6] was above 30 µM throughout. The AC50 in assay [7] and in assay [8] was above 30 µM in each case.

Take `CCCOc1ccc(C(=O)OCCN(CC)CC)cc1N` [PROPARACAINE]: the AC50 is above 30 µM in assay [1]; 11 µM in assay [2]; above 30 µM in assay [3]; above 30 µM in assay [4]; above 30 µM in [5]; above 30 µM in assay [6]. The AC50 in [7] and in assay [8] was above 30 µM each time.

Turning to `CN1C(=O)CC(c2ccccc2)C1=O` (configuration not stated) [PHENSUXIMIDE], the AC50 in assay [1] was above 10 µM; in assay [2] it was above 10 µM; in assay [3], above 10 µM; in assay [4], above 30 µM; in [5] it was above 10 µM; in assay [6], above 30 µM. For the same molecule, the AC50 in assay [9] and in assay [8] was above 10 µM in each case.

For `CC(C)C(=O)OCC(=O)[C@@]12O[C@H](C3CCCCC3)O[C@@H]1C[C@H]1[C@@H]3CCC4=CC(=O)C=C[C@]4(C)[C@H]3[C@@H](O)C[C@@]12C` [CICLESONIDE], the AC50 in [1] was above 10 µM; in assay [2], above 10 µM; in assay [3], above 10 µM; in assay [4] it was above 30 µM; in assay [5], above 10 µM; in assay [6], above 30 µM. Also, the concentration at half-maximal activity (AC50) was above 30 µM in [9] and above 10 µM in [8].

`CCN(CC)CCOC(=O)c1ccc(N)cc1` [PROCAINE]: the AC50 in assay [1] was above 10 µM; in [2], 16 µM; in assay [3], above 10 µM; in assay [4], above 30 µM; in assay [5], above 10 µM; in assay [6], 22 µM. Moreover, the values for the AC50 in [9] and in [8] were above 10 µM and above 30 µM, respectively.

With `Nc1nc2ccc(OC(F)(F)F)cc2s1` [RILUZOLE], the AC50 in assay [1], in [2], in assay [3], in assay [4], in assay [5] and in assay [6] was above 30 µM throughout. The AC50 in assay [7] and in [8] was above 30 µM in each case.

Regarding `Cc1cccc(C)c1NC(=O)C1CCCCN1C` (configuration not stated) [MEPIVACAINE], the AC50 in [1], in [2], in assay [3], in assay [4], in assay [5] and in [6] was above 30 µM each time. The AC50 in assay [7] and in assay [8] was above 30 µM throughout.

Turning to `CC(Cc1ccccc1)NCCC(c1ccccc1)c1ccccc1` (configuration not stated) [PRENYLAMINE], the AC50 in assay [1] is above 10 µM; in assay [2] it was above 10 µM; in assay [3], above 10 µM; in assay [4], 2.4 µM; in assay [5] it was 6.8 µM; in [6] it was above 30 µM. Also, the AC50 in assay [9] is above 10 µM; in assay [8], above 30 µM.

In the case of `CN1CCCN=C1COC(=O)C(O)(c1ccccc1)C1CCCCC1` (configuration not stated) [OXYPHENCYCLIMINE], the AC50 in assay [1] is above 10 µM; in assay [2], above 10 µM; in assay [3], above 10 µM; in assay [4], above 30 µM; in assay [5] it was above 10 µM; in assay [6], above 30 µM. Also, the figures for the AC50 in assay [9] and in assay [8] were above 10 µM and 27.5 µM, respectively.

On to `CN1CC[C@]23CCCC[C@H]2[C@H]1Cc1ccc(O)cc13` [LEVORPHANOL], for which the half-maximal activity concentration (AC50) in [1] was above 10 µM; in assay [2], above 30 µM; in assay [3], 9 µM; in assay [4], above 30 µM; in [5] it was above 10 µM; in assay [6], above 30 µM. Further, the AC50 is above 10 µM in assay [9] and above 30 µM in assay [8].

Consider `O=C(CCCCC(=O)Nc1c(I)cc(I)c(C(=O)O)c1I)Nc1c(I)cc(I)c(C(=O)O)c1I` [IODIPAMIDE], for which the AC50 in assay [1] was above 10 µM; in assay [2], above 10 µM; in assay [3] it was above 10 µM; in assay [4], above 30 µM; in assay [5], above 10 µM; in [6], above 30 µM. The AC50 in assay [9] and in [8] was above 10 µM throughout.

Take `CC(C)[N+](C)(CCC(C(N)=O)(c1ccccc1)c1ccccc1)C(C)C` [ISOPROPAMIDE]: the AC50 in assay [1] is above 10 µM; in assay [2], above 10 µM; in [3], above 10 µM; in [4], above 30 µM; in assay [5], above 10 µM; in assay [6], above 30 µM. For the same molecule, the AC50 in [9] and in assay [8] was above 10 µM throughout.

Regarding `C1COC(NC(C2CC2)C2CC2)=N1` [RILMENIDINE], the half-maximal activity concentration (AC50) in assay [1] is above 10 µM; in assay [2], above 10 µM; in [3], 2.6 µM; in assay [4], above 10 µM; in assay [5], above 10 µM; in assay [6], above 30 µM. The AC50 in assay [9] was above 10 µM; in assay [8] it was above 30 µM.
